Measurements as given in patent publication US20170022171A1, “2,5-DISUBSTITUTED CYCLOPENTANECARBOXYLIC ACIDS AND THEIR USE” (Bayer Pharma Aktiengesellschaft, priority 2014, published 2017).

Tests used:
Type in all cases: biochemical
MMP-3 = biological target: T1, MMP-3 (Homo sapiens, UniProt P08254); assay: In vitro MMP-3 inhibition test
T1 construct: purchased R&D Systems 513-MP
Procedure, shortened: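 APMA-activated recombinant MMP-3 (e.g. 2 nM final) preincubated with compound in 50 mM Tris/HCl pH 7.5, 10 mM CaCl2, 150 mM NaCl, 0.05% Brij-35; quenched Mca/Dnp peptide substrate (e.g. 10 μM) started the reaction. Fluorescence (ex 320/em 410 nm) followed e.g. 120 min at 32° C; IC50 at 50% signal.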

MMP-8 = biological target: T2, MMP-8 (Homo sapiens, UniProt P22894); assay: In vitro MMP-8 inhibition test
T2 construct: purchased R&D Systems 908-MP
Procedure, shortened: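 APMA-activated recombinant MMP-8 (final e.g. 0.5 nM) preincubated with compound in DMSO (e.g. 1 nM–30 μM) in 50 mM Tris/HCl pH 7.5, 10 mM CaCl2, 150 mM NaCl, 0.05% Brij-35. Reaction started with quenched Mca-Pro-Leu-Gly-Leu-Dpa(Dnp)-Ala-Arg-NH2 substrate (e.g. 10 μM); fluorescence (ex 320/em 410 nm) followed e.g. 120 min at 32° C; IC50 at 50% signal.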

MMP-10 = biological target: T3, MMP-10 (Homo sapiens, UniProt P09238); assay: In vitro MMP-10 inhibition test
T3 construct: purchased R&D Systems 910-MP
Procedure, shortened: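 APMA-activated recombinant MMP-10 (final e.g. 2 nM) with quenched Mca-Arg-Pro-Lys-Pro-Val-Glu-Nval-Trp-Arg-Lys(Dnp)-NH2 substrate (final e.g. 10 μM) in 50 mM Tris/HCl pH 7.5, 10 mM CaCl2, 150 mM NaCl, 0.05% Brij-35. Fluorescence (ex 320/em 410 nm) followed e.g. 120 min at 32 °C. IC50 at 50% signal.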

MMP-13 = biological target: T4, MMP-13 (Homo sapiens, UniProt P45452); assay: In vitro MMP-13 inhibition test
T4 construct: purchased R&D Systems 511-MP
Procedure, shortened: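 APMA-activated recombinant MMP-13 (e.g. 0.1 nM final) in 50 mM Tris/HCl pH 7.5, 10 mM CaCl2, 150 mM NaCl, 0.05% Brij-35 with Mca-PLGL-Dpa(Dnp)-AR-NH2 substrate (e.g. 10 μM final). Fluorescence (ex 320/em 410 nm) followed e.g. 120 min at 32 °C; IC50 at 50% signal.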

MMP-16 = biological target: T5, MMP-16 (Homo sapiens, UniProt P51512); assay: In vitro MMP-16 inhibition test
T5 construct: purchased R&D Systems 1785-MP
Procedure, shortened: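 Furin-activated recombinant MMP-16 (e.g. 1 nM) in 50 mM Tris/HCl pH 7.5, 10 mM CaCl2, 150 mM NaCl and 0.05% Brij-35 received compound in DMSO (e.g. 1 nM–30 μM), then 5 μM Mca-Lys-Pro-Leu-Gly-Leu-Dpa(Dnp)-Ala-Arg-NH2. Fluorescence (ex 320/em 410 nm) was followed, e.g. over 120 min at 32 °C. IC50 is the concentration halving the signal.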

T3 sequence (P09238 99-476): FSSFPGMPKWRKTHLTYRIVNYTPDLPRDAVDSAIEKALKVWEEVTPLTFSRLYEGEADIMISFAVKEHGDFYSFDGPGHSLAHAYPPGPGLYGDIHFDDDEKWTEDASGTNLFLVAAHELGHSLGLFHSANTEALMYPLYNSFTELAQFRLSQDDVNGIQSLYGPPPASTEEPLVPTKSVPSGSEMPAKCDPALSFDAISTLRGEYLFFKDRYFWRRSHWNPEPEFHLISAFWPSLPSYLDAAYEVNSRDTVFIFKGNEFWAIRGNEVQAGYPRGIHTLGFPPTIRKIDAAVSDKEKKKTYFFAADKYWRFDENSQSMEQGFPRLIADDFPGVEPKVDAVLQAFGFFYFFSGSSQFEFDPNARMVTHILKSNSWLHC
T1 sequence (P08254 100-477): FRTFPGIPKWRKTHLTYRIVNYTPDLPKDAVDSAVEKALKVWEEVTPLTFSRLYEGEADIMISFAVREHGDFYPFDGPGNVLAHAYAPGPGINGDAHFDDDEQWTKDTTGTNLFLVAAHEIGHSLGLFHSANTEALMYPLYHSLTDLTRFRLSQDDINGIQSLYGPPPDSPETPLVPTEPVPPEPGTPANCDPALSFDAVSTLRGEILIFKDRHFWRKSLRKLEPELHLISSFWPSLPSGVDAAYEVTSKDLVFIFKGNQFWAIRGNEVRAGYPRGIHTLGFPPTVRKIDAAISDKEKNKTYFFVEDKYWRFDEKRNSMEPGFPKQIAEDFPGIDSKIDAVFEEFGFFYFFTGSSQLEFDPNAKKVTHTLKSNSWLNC
T5 sequence (P51512 120-564 limits assumed): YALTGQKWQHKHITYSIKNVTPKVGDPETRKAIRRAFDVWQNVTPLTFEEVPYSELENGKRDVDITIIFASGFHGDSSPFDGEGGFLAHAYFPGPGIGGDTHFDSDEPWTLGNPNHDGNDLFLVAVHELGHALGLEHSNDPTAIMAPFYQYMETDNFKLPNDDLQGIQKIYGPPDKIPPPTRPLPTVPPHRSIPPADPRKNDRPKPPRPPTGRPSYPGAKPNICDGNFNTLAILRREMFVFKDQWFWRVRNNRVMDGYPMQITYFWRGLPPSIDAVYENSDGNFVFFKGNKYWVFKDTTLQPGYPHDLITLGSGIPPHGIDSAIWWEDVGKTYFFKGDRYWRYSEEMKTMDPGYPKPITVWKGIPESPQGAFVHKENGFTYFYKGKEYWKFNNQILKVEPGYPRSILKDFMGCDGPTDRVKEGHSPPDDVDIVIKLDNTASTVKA
T2 sequence (P22894 101-467): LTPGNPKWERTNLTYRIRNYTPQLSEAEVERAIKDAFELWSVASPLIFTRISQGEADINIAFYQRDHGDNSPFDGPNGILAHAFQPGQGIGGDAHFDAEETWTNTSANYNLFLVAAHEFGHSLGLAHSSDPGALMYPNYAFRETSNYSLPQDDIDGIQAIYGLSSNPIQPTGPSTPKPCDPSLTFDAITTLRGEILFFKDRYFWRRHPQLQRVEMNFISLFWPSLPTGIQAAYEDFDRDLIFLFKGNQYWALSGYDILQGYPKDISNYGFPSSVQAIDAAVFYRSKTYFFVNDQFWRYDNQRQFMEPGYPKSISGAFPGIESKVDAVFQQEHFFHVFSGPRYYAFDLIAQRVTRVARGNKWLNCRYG

## O=C(O)[C@@H]1[C@@H](Cn2nnc3ccc(C(F)(F)F)cc3c2=O)CC[C@H]1C(=O)c1ccc(SCc2cccc(Cl)c2)cc1 (single isomer, unassigned) [Example 77, (+)-(1RS,2RS,5SR)-2-{4-[(3-Chlorobenzyl)sulphanyl]benzoyl}-5-{[4-oxo-6-(trifluoromethyl)-1,2,3-benzotriazin-3(4H)-yl]methyl}cyclopentanecarboxylic acid]
MMP-3
  IC50: 100 nM
MMP-8
  IC50: 41 nM
MMP-10
  IC50: 30 nM
MMP-13
  IC50: 770 nM
MMP-16
  IC50: 3800 nM

## O=C(O)[C@@H]1[C@@H](Cn2nnc3ccc(C(F)(F)F)cc3c2=O)CC[C@H]1C(=O)c1ccc(SCc2ccc(Cl)c(Cl)c2)cc1 (single isomer, unassigned) [Example 80, (+)-(1RS,2RS,5SR)-2-{4-[(3,4-Dichlorobenzyl)sulphanyl]benzoyl}-5-{[4-oxo-6-(trifluoromethyl)-1,2,3-benzotriazin-3(4H)-yl]methyl}cyclopentanecarboxylic acid]
MMP-3
  IC50: 150 nM
MMP-8
  IC50: 52 nM
MMP-10
  IC50: 53 nM
MMP-13
  IC50: 840 nM
MMP-16
  IC50: 5500 nM

## Cc1ccc2nnn(C[C@H]3CC[C@@H](C(=O)c4ccc(OCc5ccccc5)cc4)[C@@H]3C(=O)O)c(=O)c2c1 (single isomer, unassigned) [Example 92, (+)-(1RS,2RS,5SR)-2-[4-(Benzyloxy)benzoyl]-5-[(6-methyl-4-oxo-1,2,3-benzotriazin-3(4H)-yl)methyl]cyclopentanecarboxylic acid]
MMP-3
  IC50: 150 nM
MMP-8
  IC50: 2.4 nM
MMP-10
  IC50: 15 nM
MMP-13
  IC50: 27 nM
MMP-16
  IC50: 110 nM

## Cc1cccc(COc2ccc(C(=O)[C@@H]3CC[C@H](Cn4nnc5ccc(C)cc5c4=O)[C@H]3C(=O)O)cc2)c1 (single isomer, unassigned) [Example 98, (+)-(1RS,2RS,5SR)-2-{4-[(3-Methylbenzyl)oxy]benzoyl}-5-[(6-methyl-4-oxo-1,2,3-benzotriazin-3(4H)-yl)methyl]cyclopentanecarboxylic acid]
MMP-3
  IC50: 680 nM
MMP-8
  IC50: 64 nM
MMP-10
  IC50: 55 nM
MMP-13
  IC50: 410 nM
MMP-16
  IC50: 670 nM

## Cc1ccc2nnn(C[C@H]3CC[C@@H](C(=O)c4ccc(OCc5cccc(C(F)(F)F)c5)cc4)[C@@H]3C(=O)O)c(=O)c2c1 (single isomer, unassigned) [Example 101, (+)-(1RS,2SR,5RS)-2-[(6-Methyl-4-oxo-1,2,3-benzotriazin-3(4H)-yl)methyl]-5-(4-{[3-(trifluoromethyl)benzyl]oxy}benzoyl)cyclopentanecarboxylic acid]
MMP-3
  IC50: 880 nM
MMP-8
  IC50: 29 nM
MMP-10
  IC50: 110 nM
MMP-13
  IC50: 210 nM
MMP-16
  IC50: 880 nM

## Cc1ccc2nnn(C[C@H]3CC[C@@H](C(=O)c4ccc(OCc5cccc(Cl)c5)cc4)[C@@H]3C(=O)O)c(=O)c2c1 (single isomer, unassigned) [Example 104, (+)-(1RS,2RS,5SR)-2-{4-[(3-Chlorobenzyl)oxy]benzoyl}-5-[(6-methyl-4-oxo-1,2,3-benzotriazin-3(4H)-yl)methyl]cyclopentanecarboxylic acid]
MMP-3
  IC50: 260 nM
MMP-8
  IC50: 31 nM
MMP-10
  IC50: 50 nM
MMP-13
  IC50: 200 nM
MMP-16
  IC50: 540 nM

## COc1cccc(COc2ccc(C(=O)[C@@H]3CC[C@H](Cn4nnc5ccc(C)cc5c4=O)[C@H]3C(=O)O)cc2)c1 (single isomer, unassigned) [Example 107, (+)-(1RS,2RS,5SR)-2-{4-[(3-Methoxybenzyl)oxy]benzoyl}-5-[(6-methyl-4-oxo-1,2,3-benzotriazin-3(4H)-yl)methyl]cyclopentanecarboxylic acid]
MMP-3
  IC50: 730 nM
MMP-8
  IC50: 19 nM
MMP-10
  IC50: 52 nM
MMP-13
  IC50: 150 nM
MMP-16
  IC50: 650 nM
